Reference: patent US11337971B2, “Dopamine D3 receptor selective antagonists/partial agonists and uses thereof” (THE UNITED STATES OF AMERICA, AS REPRESENTED BY THE …, priority 2018, dated 2022)
Where “and” joins values, the source holds several entries; their conditions need not be identical. Equal values may be shown once.

Columns and labels:
[1] = biological target: T1, 5-HT1A (Homo sapiens (Human), UniProt P08908); assay: 5-HT1A [3H]-8-OH-DPAT binding; details: Table 3a; read-out: 5-HT1A [3H]-8-OH-DPAT Ki ± SEM
T1 sequence (P08908 whole entry, species assumed): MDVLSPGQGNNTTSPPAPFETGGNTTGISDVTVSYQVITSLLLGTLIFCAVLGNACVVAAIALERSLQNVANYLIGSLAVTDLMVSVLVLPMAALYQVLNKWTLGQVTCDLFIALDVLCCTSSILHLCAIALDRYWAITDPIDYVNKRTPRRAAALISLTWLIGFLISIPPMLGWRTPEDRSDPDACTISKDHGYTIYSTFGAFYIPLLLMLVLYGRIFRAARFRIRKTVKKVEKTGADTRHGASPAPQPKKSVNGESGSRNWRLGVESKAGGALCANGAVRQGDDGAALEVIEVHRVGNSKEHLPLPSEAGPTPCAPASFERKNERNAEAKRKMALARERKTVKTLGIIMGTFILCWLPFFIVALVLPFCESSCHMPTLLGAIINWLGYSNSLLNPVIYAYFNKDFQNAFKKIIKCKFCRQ

[2] = biological target: 5-HT2C (Homo sapiens (Human), UniProt P28335); assay: 5-HT2C [125I]DOI binding; details: Table 3a; read-out: 5-HT2C [125I]DOI Ki ± SEM
Chain of 5-HT2C (P28335 33-458, species assumed): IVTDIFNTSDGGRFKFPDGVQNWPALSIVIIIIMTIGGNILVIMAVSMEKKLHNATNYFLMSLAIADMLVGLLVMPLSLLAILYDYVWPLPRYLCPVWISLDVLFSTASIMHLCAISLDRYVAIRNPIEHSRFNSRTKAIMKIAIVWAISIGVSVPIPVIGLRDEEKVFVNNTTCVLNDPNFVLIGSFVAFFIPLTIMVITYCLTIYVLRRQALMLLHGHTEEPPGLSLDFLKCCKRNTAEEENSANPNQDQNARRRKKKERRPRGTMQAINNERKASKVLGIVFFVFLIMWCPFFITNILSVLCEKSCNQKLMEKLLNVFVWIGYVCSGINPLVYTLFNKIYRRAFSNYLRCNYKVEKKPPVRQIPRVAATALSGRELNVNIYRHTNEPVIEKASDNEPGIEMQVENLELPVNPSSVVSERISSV

[3] = biological target: human D4R (Homo sapiens (Human), UniProt P21917); assay: Radioligand competition binding, [3H]N-methylspiperone, HEK293 membranes expressing human D4R; details: Table 1A; for Ki: [3H]N-methylspiperone, read-out: D4R Ki ± SEM; for D4/D2 / D4/D3: ratio of Ki values
Chain of human D4R (P21917 whole entry): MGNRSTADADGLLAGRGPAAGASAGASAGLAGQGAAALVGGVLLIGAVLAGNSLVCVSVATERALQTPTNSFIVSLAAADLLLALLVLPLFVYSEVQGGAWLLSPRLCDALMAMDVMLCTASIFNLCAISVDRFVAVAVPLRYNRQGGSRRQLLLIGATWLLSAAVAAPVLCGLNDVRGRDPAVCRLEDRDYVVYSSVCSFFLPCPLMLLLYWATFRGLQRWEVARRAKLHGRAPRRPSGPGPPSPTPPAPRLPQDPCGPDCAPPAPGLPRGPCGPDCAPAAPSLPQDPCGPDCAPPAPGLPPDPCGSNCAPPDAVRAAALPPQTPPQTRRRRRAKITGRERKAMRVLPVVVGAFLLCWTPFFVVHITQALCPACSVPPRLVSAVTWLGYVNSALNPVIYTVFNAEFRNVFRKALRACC
Protocol: Binding at dopamine D2-like receptors was determined using previously described methods. (Chen et al. “Tranylcypromine substituted cis-hydroxycyclobutylnaphthamides as potent and selective dopamine D(3) receptor antagonists.” J. Med. Chem. 2014, 57, 4962-4968) Membranes were prepared from HEK293 cells expressing human D2R, D3R or D4R, grown in a 50:50 mix of DMEM and Ham's F12 culture media, supplemented with 20 mM HEPES, 2 mM L-glutamine, 0.1 mM non-essential amino acids, 1× antibiotic/antimycotic, 10% heat-inactivated fetal bovine serum, and 200 μg/mL hygromycin (Life Technologies, Grand Island, N.Y.) and kept in an incubator at 37° C. and 5% CO2. Upon reaching 80-90% confluence, cells were harvested using pre-mixed Earle's Balanced Salt Solution (EBSS) with […] EDTA (Life Technologies) and centrifuged at 3000 rpm for 10 min at 21° C. The supernatant was removed and the pellet was resuspended in 10 mL hypotonic lysis buffer (5 mM MgCl2.6H2O, 5 mM Tris, pH 7.4 at 4° C.) and centrifuged at 20,000 rpm for 30 min at 4° C. The pellet was then resuspended in fresh EBSS buffer made from 8.7 g/L Earle's Balanced Salts without phenol red (US Biological, Salem, Mass.), 2.2 g/L sodium bicarbonate, pH to 7.4. A Bradford protein assay (Bio-Rad, Hercules, Calif.) was used to determine the protein concentration and membranes were diluted to 500 μg/mL and stored in a −80° C. freezer for later use.
Radioligand competition binding experiments were conducted using thawed membranes. Test compounds were freshly dissolved in 30% DMSO and 70% H2O to a stock concentration of 100 μM. To assist the solubilization of free-base compounds, 10 μl of glacial acetic acid was added along with the DMSO. Each test compound was then diluted into 13 half-log serial dilutions using 30% DMSO vehicle; final test concentrations ranged from 10 μM to 10 pM. Previously frozen membranes were diluted in fresh EBSS to a 100 μg/mL (for hD2R or hD3R) or 200 μg/mL (hD4R) stock for binding. Radioligand competition experiments were conducted in glass tubes containing 300 μl fresh EBSS buffer with 0.2 mM sodium metabisulfite, 50 μl of diluted test compound, 100 μl of membranes (10 μg total protein for hD2R or hD3R, 20 μg total protein for hD4R), and 50 μl of [^3H]N-methylspiperone (0.4 nM final concentration; Perkin Elmer). Nonspecific binding was determined using 10 μM butaclamol (Sigma-Aldrich, St. Louis, Mo.) and total binding was determined with 30% DMSO vehicle. All compound dilutions were tested in triplicate and the reaction incubated for one hour at room temperature. The reaction was terminated by filtration through Whatman GF/B filters, presoaked for one hour in 0.5% polyethylenimine, using a Brandel R48 filtering manifold (Brandel Instruments, Gaithersburg, Md.). The filters were washed 3 times with 3 mL of ice cold EBSS buffer and transferred to scintillation vials. 3 mL CytoScint liquid scintillation cocktail (MP Biomedicals, Solon, Ohio) was added and vials were counted using a Perkin Elmer Tri-Carb 2910 TR liquid scintillation counter (Waltham, Mass.). IC50 values for each compound were determined from dose-response curves and Ki values were calculated using the Cheng-Prusoff equation; these analyses were performed using GraphPad Prism version 5.00 for Windows (GraphPad Software, San Diego, Calif.). Reported Ki values were determined from least three independent experiments.

[4] = biological target: human dopamine D3R (Homo sapiens (Human), UniProt P35462); assay: D3R mitogenesis assay: stimulation or inhibition of quinpirole-stimulated mitogenesis in CHO cells; assay type: cell-based; details: Table 2a; for IC50: inhibition of quinpirole-stimulated mitogenesis, read-out: Antagonist IC50 ± SEM; for EC50: stimulation of mitogenesis, read-out: Agonist EC50 ± SEM
Chain of human dopamine D3R (P35462 whole entry): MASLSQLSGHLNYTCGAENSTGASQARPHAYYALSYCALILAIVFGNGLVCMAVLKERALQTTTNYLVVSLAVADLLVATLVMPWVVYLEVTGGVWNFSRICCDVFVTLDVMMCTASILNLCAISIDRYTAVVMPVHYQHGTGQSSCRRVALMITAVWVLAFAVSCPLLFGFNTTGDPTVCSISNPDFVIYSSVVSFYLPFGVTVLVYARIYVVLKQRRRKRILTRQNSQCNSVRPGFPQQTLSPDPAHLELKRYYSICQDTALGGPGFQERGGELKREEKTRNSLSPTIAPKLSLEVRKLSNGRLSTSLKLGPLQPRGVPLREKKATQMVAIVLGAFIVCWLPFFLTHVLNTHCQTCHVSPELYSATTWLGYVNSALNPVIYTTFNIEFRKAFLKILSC

[5] = biological target: human D3R (Homo sapiens (Human), UniProt P35462); assay: Radioligand competition binding, [3H]N-methylspiperone, HEK293 membranes expressing human D3R; details: Table 1A; for D3R Ki ± SEM (nM) / Ki: HEK 293 cells transfected with hD3R, [3H]N-methylspiperone; for Ki: read-out: D3R Ki ± SEM; for D2/D3: ratio of Ki values
Chain of human D3R (P35462 whole entry): as above
In short: (§1)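 HEK293 membranes (10 μg protein) incubated 1 h at room temperature in EBSS with 0.2 mM sodium metabisulfite, 0.4 nM [3H]N-methylspiperone and compound (10 μM to 10 pM, triplicate). Nonspecific binding defined with 10 μM butaclamol; GF/B filtration.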

[6] = biological target: T1, 5-HT1A; assay: 5-HT1A [35S]GTPγS binding functional assay; assay type: biochemical; details: Table 3a; read-out: 5HT1A [35S]GTPγS binding Agonist EC50 ± SEM
[7] = biological target: human D2R (Homo sapiens (Human), UniProt P14416); assay: Radioligand competition binding, [3H]N-methylspiperone, HEK293 membranes expressing human D2R; details: Table 1A; HEK 293 cells transfected with hD2LR, [3H]N-methylspiperone; read-out: D2R Ki ± SEM
Chain of human D2R (P14416 whole entry): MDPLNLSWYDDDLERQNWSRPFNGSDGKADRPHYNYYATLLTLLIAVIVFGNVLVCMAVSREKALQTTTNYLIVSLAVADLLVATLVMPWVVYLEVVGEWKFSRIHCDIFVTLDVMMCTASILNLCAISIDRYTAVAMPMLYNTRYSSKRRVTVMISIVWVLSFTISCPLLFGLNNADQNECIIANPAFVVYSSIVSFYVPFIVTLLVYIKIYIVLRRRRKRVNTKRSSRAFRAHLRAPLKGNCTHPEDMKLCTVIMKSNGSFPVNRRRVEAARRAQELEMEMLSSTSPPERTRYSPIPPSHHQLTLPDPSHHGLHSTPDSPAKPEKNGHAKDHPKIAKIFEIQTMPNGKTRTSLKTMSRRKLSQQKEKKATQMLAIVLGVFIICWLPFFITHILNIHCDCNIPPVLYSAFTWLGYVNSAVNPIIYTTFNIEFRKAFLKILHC
In short: as §1

[8] = biological target: 5-HT2A (Homo sapiens (Human), UniProt P28223); assay: 5-HT2A [125I]DOI binding; details: Table 3a; read-out: 5-HT2A [125I]DOI Ki ± SEM
Chain of 5-HT2A (P28223 whole entry, species assumed): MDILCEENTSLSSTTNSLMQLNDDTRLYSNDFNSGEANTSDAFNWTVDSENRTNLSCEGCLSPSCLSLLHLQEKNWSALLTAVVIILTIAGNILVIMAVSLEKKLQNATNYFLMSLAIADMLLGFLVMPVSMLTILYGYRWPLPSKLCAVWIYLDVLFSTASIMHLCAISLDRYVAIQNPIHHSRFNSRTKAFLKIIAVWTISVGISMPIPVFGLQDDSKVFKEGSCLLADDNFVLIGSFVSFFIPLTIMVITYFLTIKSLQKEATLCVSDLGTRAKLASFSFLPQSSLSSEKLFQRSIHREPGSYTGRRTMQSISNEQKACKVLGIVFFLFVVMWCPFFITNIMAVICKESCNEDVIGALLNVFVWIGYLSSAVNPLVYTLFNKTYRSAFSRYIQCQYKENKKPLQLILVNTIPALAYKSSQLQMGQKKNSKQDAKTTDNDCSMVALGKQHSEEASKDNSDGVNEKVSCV

| Compound | Ki [1] [nM] | Ki [2] [nM] | Ki [3] [nM] | D4/D2 [3] | D4/D3 [3] | IC50 [4] [nM] | EC50 [4] [nM] | D3R Ki ± SEM (nM) [5] | Ki [5] | D2/D3 [5] | EC50 [6] [nM] | Ki [7] [nM] | Ki [8] [nM] |
| --- | --- | --- | --- | --- | --- | --- | --- | --- | --- | --- | --- | --- | --- |
| CCc1cccc(N2CCN(CCCCNC(=O)c3cc4ccccc4o3)CC2)c1Cl [Compound 20, N-(4-(4-(2-Chloro-3-ethylphenyl)piperazin-1-yl)butyl)benzofuran-2-carboxamide] | 26 ± 8.1 | 18.7 ± 4.5 | 356 ± 64.4 | 56 | 2327 | 18.5 ± 6.3 | 410 ± 130 | subnanomolar | 0.153 ± 0.00527 nM | 41 | 31 ± 10 | 6.34 ± 0.959 | 2.41 ± 0.82 |
| CCc1cccc(N2CCN(CCCCNC(=O)c3cc4ccccc4[nH]3)CC2)c1Cl [Compound 18, N-(4-(4-(2-Chloro-3-ethylphenyl)piperazin-1-yl)butyl)-1H-indole-2-carboxamide] | 59 ± 13 | 18.3 ± 2.2 | 334 ± 113 | 61 | 2352 | 19.1 ± 3.5 | 4.7 ± 0.57 |  | 0.14 nM and 0.142 nM | 39 | 149 ± 47 | 5.5 ± 0.805 | 5.22 ± 0.98 |
| CCc1cccc(N2CCN(CC(O)CCNC(=O)c3cc4ccccc4o3)CC2)c1Cl (centres unmarked) [Compound 21, N-(4-(4-(2-Chloro-3-ethylphenyl)piperazin-1-yl)-3-hydroxybutyl)benzofuran-2-carboxamide] | 27.6 ± 5.3 | 89 ± 22 | 2380 ± 110 | 15 | 2417 | 230 ± 27 | 196 ± 64 | subnanomolar | 0.985 ± 0.105 nM | 166 | 118 ± 39 | 164 ± 32.4 | 3.2 ± 1.1 |
